Values after ≈ are worked out from the molar mass of the structure shown. “Also recorded” adds a separate entry of the source. Counter-ions that a name gives are not always drawn. Like-named read-outs stand apart in the source and are kept apart here.
Tests used:
[1] = Thermodynamic solubility in PBS pH 7.4; format: physicochemical; conditions: 20 °C, pH 7.4, aqueous buffer, thermodynamic from solid
Description: The reference samples were prepared as follows: a weight corresponding to 2.5 µmol was dissolved in 250 µL of DMSO, resulting in a concentration of 10 mM stock solution. Each calibration level standard was prepared by diluting the stock solution in a mixture of PBS and acetonitrile (50 : 50 v/v). The samples for testing were prepared as follows: the volume of 1000 µL of PBS was added to the testing tube containing a weight of sample corresponding to 0.4 mM. The mixture was shaken at 1000 rpm at 20 °C for 24 h. The mixture was then filtered using a syringe polypropylene 0.45 µm filter. Samples and calibration standards are prepared using an automated system of a robotic arm (PAL-RTC, Switzerland). Then, the sample was analysed on chromatographic system (Vanquish UHPLC, Thermo Fisher Scientific, Germany) connected to the diode array detector and consequently to the charged aerosol detector (both Vanquish, Thermo Fisher Scientific, Germany), Thermo Scientific Accucore C8 (100 × 3 mm; 2.6 µm) column, using gradient elution with acetonitrile/methanol/5 mM formate buffer (pH = 3.00); flow: 1.0 cm^3 min^−1; column temperature: 40 °C; CAD temperature: 30 °C; sample volume: 5 mm^3.

Stability in rat plasma = format: in vitro ADME
Description: Compounds were prepared as 1.6 mg mL^−1 stock solutions in methanol. Then, 20 µL of stock solution was added to 1000 µL of rat plasma (BioIVT, Cat. No. RAT00PLLH-0102307), maintained at 37 °C. Aliquots (50 µL) withdrawn at 0, 8, and 24 h were analyzed by HPLC. An aliquot of plasma was extracted with methanol (450 µL) containing an internal standard, and the solution was vortexed (20 s) and centrifuged at 13 500 rpm for 10 min. The supernatant was transferred to an autosampler vial, and 10 µL was injected into an LC-MS system. The samples were analyzed using an Agilent 6230 TOF LC/MS. Samples were separated on a Waters ACQUITY UPLC CSH Phenyl-Hexyl column (100 × 2.1, 130 Å, 1.7 µm) at a flow rate of 0.3 mL min^−1. […]. The temperature, the flow rate of the nitrogen drying gas, the pressure of the nitrogen nebulizing gas, and the flow rate of the sheath gas were set at 325 °C, 10 L min^−1, 40 psi, […], and 11 L min^−1, respectively. Results are represented as a percentage of the compound remaining in spiked plasma.

in vitro [2] = conditions: for PAMPA permeability Retention (mass retention): 5 h, 100 µM; for PAMPA permeability Retention (mass retention) / Papp at 5 h, 100 µM: pH 7.4; for Papp at 5 h, 100 µM: PAMPA
Description: Permeability was quantified using permeability coefficients (Pe) and mass retention, the latter representing the proportion of compound retained in the membrane.
Permeation experiments were conducted in polystyrene 96-well filter plates with PVDF membrane pre-coated with structured layers of phospholipids (Corning Gentest™) according to the manufacturer's instructions. Briefly, the plate was warmed to room temperature, and meanwhile, the solutions of the compounds were diluted from 10 mM DMSO stocks to TRIS–HCl buffer pH 7.4 to reach a 100 µM final concentration. The DMSO concentration in the samples was 1%. Then, 300 µL of these solutions were transferred into the donor (receiver) plate wells, and 200 µL of the (TRIS) buffer was added to the acceptor (filter) plate wells. The filter plate and receiver plate were assembled and incubated for 5 h on an orbital shaker (300 rpm). After this, the concentration of the tested substances in both the donor and acceptor compartments was determined with use of LC/MS. Liquid chromatography was performed using an ExionLC AD pump and autosampler from Sciex (Framingham, MA, USA). […] The mobile phase flow rate was 300 µL min^−1. The column Synergi Fusion-RP from Phenomenex (Torrance, CA, USA) was used and was kept at 40 °C during the analysis.

in vitro [3] = conditions: for half-life at 10 µM: rat, microsomes
Description: The reactions were terminated by the addition of four volumes of ice-cold methanol, mixed vigorously, and left at −20 °C for 1h. After that, the samples were centrifuged and the supernatants were analysed by means of ECHO-MS® System (Sciex, Framingham, MA, USA). Zero time points were prepared by adding ice-cold methanol to the mixture of the compound with cofactors before the addition of microsomes. […] Intrinsic clearance (CLint) was calculated using the following formula: [drawing 4] where V is the incubation volume per milligram of microsomal protein (µL mg^−1) and t1/2 is the microsomal half-life.

GluN1/GluN2B receptors = biological target: T1, GluN1/GluN2B receptors (Rattus norvegicus, UniProt P35439+Q00960); assay: Patch-clamp: modulation of glutamate-induced currents of recombinant GluN1/GluN2B receptors expressed in HEK293 cells; format: cell-based; conditions: for h ± SEM (apparent Hill coefficient): concentration-response fit; for h ± SEM (apparent Hill coefficient) / EC50 / Emax: mean ± SEM; for EC50: half-maximal potentiation of currents evoked by 1 µM glutamate; for EC50 / Emax: HEK293; for Emax: maximal potentiation of currents evoked by 1 µM glutamate and 30 µM glycine
T1 construct: expressed in transfected cells; host or cells: HEK293 cells (ATCC No. CRL-1573)
Description: To investigate the effect of compounds 11–23 on the activity of NMDARs, electrophysiological measurements were performed on HEK293 cells that were co-transfected with cDNAs containing genes encoding for the rat GluN1-1a and GluN2B subunits. The degree of modulation (E; potentiation/inhibition) for the newly synthesized compounds was determined using the following formula: [drawing 1] where Ie is the value of the current amplitude during glutamate and compound coapplication, and Ia is the current amplitude value for glutamate application. […] The results are presented as mean ± standard error of the mean (SEM), with n equal to the number of independent measurements. One-way analysis of variance (ANOVA) was used for multiple comparisons (unless otherwise stated, a value of P ≤ 0.05 was used for the determination of significance).
We have evaluated the relationship between oxime derivatives 11–23 and their modulatory effect on recombinant GluN1/GluN2B receptors. Due to the […] effect of neurosteroid-based PAMs at NMDARs[20,44]
HEK293 cells (American Type Culture Collection, ATCC No. CRL-1573, Rockville, MD, USA) were cultured in Opti-MEM I (Invitrogen, Carlsbad, CA, USA) supplemented with 5% fetal bovine serum (FBS; PAN Biotech, Aidenbach, Germany) at 37 °C in 5% CO2. 24 h before transfection, HEK293 cells were plated in 24-well plates at a density of 2 × 10^5 cells per well. The next day, the cells were transfected with cDNA encoding rat GluN1-1a (GluN1; GenBank accession number U08261)[56] and GluN2B (GenBank accession number M91562)[57] subunits (in the pCI-neo expression vector), along with green fluorescent protein (GFP; in the pQBI 25 vector, Takara, Tokyo, Japan). Briefly, equal amounts (200 ng) of cDNAs encoding GluN1-1a, GluN2B, and GFP were mixed with 0.6 µl of Matra-A reagent (IBA, Gottingen, Germany) in 50 µL of Opti-MEM I and added to confluent HEK293 cells cultured in 24-well plates. After trypsinization, the cells were resuspended in Opti-MEM I containing 1% FBS, supplemented with 20 mM MgCl2, 1 mM D,L-2-amino-5-phosphonovaleric acid, 3 mM kynurenic acid, and 1 µM ketamine, and plated on 30 mm glass coverslips coated with collagen and poly-L-lysine. Transfected cells were identified by GFP epifluorescence. Electrophysiology experiments were performed 24–48 h after transfection.
Whole-cell current recordings, voltage-clamped at a holding potential of −60 mV, were performed at room temperature using a patch-clamp amplifier (Axopatch 200B; Molecular Devices, Sunnyvale, CA, USA) after capacitance and series resistance (<10 MΩ) compensation (80–90%). NMDAR current responses were low-pass filtered at 2 kHz, digitally sampled at 5 kHz, and analysed using pClamp software (version 10.6; Molecular Devices). Patch pipettes (3–5 MΩ), pulled from borosilicate glass, were filled with an intracellular solution (ICS) containing (in mM): 15 CsCl, 10 BAPTA, 3 MgCl2, 1 CaCl2, 120 gluconic acid, 10 HEPES, and 2 ATP-Mg salt (pH adjusted to 7.2 with CsOH). The extracellular solution (ECS) contained (in mM): 160 NaCl, 2.5 KCl, 0.2 EDTA, 10 glucose, 10 HEPES, and 0.7 CaCl2 (pH adjusted to 7.3 with NaOH). NMDAR responses were induced by 1 µM glutamate and 30 µM glycine. 1% DMSO was present in all control and testing solutions. Solution applications were performed using a microprocessor-controlled multibarrel fast-perfusion system with a solution exchange rate around the cells of ∼10 ms.[58]

NMDA receptors = conditions: in Fig. 1; read-out: IC50, negative allosteric modulation of NMDA receptors; cited from earlier work
[4] = Solubility PBS, pH 7.4 (thermodynamic)
[5] = PBS, PBS pH 7.4, 20 °C, 24 h, read-out: Solubility PBS, pH 7.4 (thermodynamic)

T1 sequence (Q00960 27-1482, other chains not shown): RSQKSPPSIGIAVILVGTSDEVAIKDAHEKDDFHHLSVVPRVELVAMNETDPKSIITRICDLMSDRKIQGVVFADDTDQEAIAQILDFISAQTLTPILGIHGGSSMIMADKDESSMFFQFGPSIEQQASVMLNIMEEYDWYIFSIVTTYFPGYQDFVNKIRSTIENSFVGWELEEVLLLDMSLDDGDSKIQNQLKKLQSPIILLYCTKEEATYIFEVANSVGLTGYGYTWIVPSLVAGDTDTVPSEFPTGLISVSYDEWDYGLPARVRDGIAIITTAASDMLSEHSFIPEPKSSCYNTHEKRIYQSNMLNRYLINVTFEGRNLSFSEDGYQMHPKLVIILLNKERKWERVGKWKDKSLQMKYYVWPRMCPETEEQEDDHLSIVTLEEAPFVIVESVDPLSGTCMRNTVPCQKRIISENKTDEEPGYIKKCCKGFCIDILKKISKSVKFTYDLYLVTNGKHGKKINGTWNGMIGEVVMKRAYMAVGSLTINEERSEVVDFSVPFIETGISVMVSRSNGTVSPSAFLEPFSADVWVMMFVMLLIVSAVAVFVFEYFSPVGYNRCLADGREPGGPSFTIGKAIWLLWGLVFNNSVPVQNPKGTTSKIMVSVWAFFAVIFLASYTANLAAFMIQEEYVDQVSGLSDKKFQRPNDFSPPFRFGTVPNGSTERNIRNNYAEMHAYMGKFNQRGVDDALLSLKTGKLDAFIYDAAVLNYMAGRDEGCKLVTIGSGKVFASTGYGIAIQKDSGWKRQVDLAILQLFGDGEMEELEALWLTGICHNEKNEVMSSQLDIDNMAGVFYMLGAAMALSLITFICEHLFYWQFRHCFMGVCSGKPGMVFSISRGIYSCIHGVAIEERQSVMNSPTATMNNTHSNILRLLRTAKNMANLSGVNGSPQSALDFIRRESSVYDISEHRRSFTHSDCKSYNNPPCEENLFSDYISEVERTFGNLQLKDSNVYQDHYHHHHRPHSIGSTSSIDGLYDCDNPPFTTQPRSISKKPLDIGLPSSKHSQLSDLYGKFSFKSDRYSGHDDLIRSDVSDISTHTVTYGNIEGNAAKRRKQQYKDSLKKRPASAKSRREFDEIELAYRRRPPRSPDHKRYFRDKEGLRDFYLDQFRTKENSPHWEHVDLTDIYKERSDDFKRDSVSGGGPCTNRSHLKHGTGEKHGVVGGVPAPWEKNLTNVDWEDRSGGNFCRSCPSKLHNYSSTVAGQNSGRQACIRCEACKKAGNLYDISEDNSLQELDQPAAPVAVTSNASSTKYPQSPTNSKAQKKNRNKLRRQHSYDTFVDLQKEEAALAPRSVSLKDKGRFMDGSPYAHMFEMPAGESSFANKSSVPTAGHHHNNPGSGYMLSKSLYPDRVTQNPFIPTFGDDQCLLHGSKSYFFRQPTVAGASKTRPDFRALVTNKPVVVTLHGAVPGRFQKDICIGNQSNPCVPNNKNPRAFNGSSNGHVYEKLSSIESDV

Structure (SMILES) | solubility thermodynamic at 24 h [1, 4] [µM] | Stability in rat plasma (% remaining) 8 h (Stability in rat plasma; rat, plasma) [% remaining] | Stability in rat plasma (% remaining) 24 h (Stability in rat plasma; rat, plasma) [% remaining] | PAMPA permeability Retention (mass retention) (in vitro [2]) [%] | Papp at 5 h, 100 µM (in vitro [2]) [×10⁻⁶ cm/s] | half-life at 10 µM (in vitro [3]; pH 7.4) [min] | h ± SEM (apparent Hill coefficient) (GluN1/GluN2B receptors) | EC50 (GluN1/GluN2B receptors) [µM] | Emax (GluN1/GluN2B receptors) [%] | other results
CC(=O)[C@H]1CC[C@H]2[C@@H]3CC=C4C[C@@H](OC(=O)CCCCC(=O)O)CC[C@]4(C)[C@H]3CC[C@]12C [20-Oxo-PE-hAdi, 20-Oxo-pregn-5-en-3β-yl hemiadipate, reference compound] | 20 ± 2 (≈ 8.89 µg/mL) | 11 ± 0 | 2 ± 0 |  |  |  |  |  |  | 
CC(=O)[C@H]1CC[C@H]2[C@@H]3CC=C4C[C@@H](OC(=O)CCCC(=O)O)CC[C@]4(C)[C@H]3CC[C@]12C [20-Oxo-PE-hGlu, 20-Oxo-pregn-5-en-3β-yl hemiglutarate, reference compound] |  |  |  |  |  |  |  |  |  | solubility thermodynamic at 24 h [1, 5]: 86 ± 1 µM (≈ 37 µg/mL); Stability in rat plasma (% remaining) 8 h (Stability in rat plasma; rat plasma, 37 °C): 44 ± 3 % remaining; Stability in rat plasma (% remaining) 24 h (Stability in rat plasma; rat plasma, 37 °C): 21 ± 1 % remaining
CC(=O)[C@H]1CC[C@H]2[C@@H]3CC=C4C[C@@H](OC(=O)CCC(=O)O)CC[C@]4(C)[C@H]3CC[C@]12C [20-Oxo-PE-hSuc, 20-Oxo-pregn-5-en-3β-yl hemisuccinate, reference compound] |  |  |  |  |  |  |  |  |  | solubility thermodynamic at 24 h [1, 5]: 277 ± 1 µM; Stability in rat plasma (% remaining) 8 h (Stability in rat plasma; rat plasma, 37 °C): 69 ± 1 % remaining; Stability in rat plasma (% remaining) 24 h (Stability in rat plasma; rat plasma, 37 °C): 50 ± 2 % remaining
C/C(=N\O)[C@H]1CCC2C3CC=C4C[C@@H](OC(=O)CCCC(=O)O)CC[C@]4(C)C3CC[C@@]21C (stereo partly drawn) [Compound 11, 20-Oxo-pregn-5-en-3β-yl 3-hemiglutarate 20-oxime] |  | 69.9 ± 6.0 | 58.1 ± 8.1 | 87 | 155 | 58.6 ± 18.7 | 1.5 ± 0.1 | 7.9 ± 2.1 | 270 ± 35 | PAMPA permeability (in vitro [2]): comparable to or greater than that of verapamil; Stability in rat microsomes Clint (in vitro [3]): 23.6 µlmin^−1mg
C[C@]12CC[C@H](OC(=O)CCCC(=O)O)CC1=CCC1C2CC[C@]2(C)/C(=N/O)CCC12 (stereo partly drawn) [Compound 14, 17-Oxo-androst-5-en-3β-yl 3-hemiglutarate 17-oxime] |  | 61.1 ± 1.6 | 56.3 ± 2.5 | 17 | 26.3 | > 60 |  |  |  | PAMPA permeability (in vitro [2]): moderate permeability; Modulatory profile at NMDARs (GluN1/GluN2B receptors; GluN1/GluN2B in HEK293): not identified as PAMs; also recorded: lost its PAM-activity
CCO/N=C1\CCC2C3CC=C4C[C@@H](OC(=O)CCCC(=O)O)CC[C@]4(C)C3CC[C@]12C (stereo partly drawn) [Compound 15, 17-Oxo-androst-5-en-3β-yl hemiglutarate O-ethyloxime] |  | 82.1 ± 7.5 | 69.9 ± 5.0 | 80 |  | > 60 | 1.5 ± 0.1 | 22.7 ± 3.1 | 441 ± 76 | 
CCO/N=C(\C)[C@H]1CCC2C3CC=C4C[C@@H](OC(=O)CCC(=O)O)CC[C@]4(C)C3CC[C@@]21C (stereo partly drawn) [Compound 22, 20-Oxo-pregn-5-en-3β-yl hemisuccinate O-ethyloxime] | 22 ± 1 |  |  | 96 | 1.58 | 52.6 ± 3.7 | 1.3 ± 0.1 | 7 ± 1.1 | 340 ± 22 | Stability in rat microsomes Clint (in vitro [3]): 26.3 µlmin^−1mg
CCO/N=C(\C)[C@H]1CCC2C3CC=C4C[C@@H](OC(=O)CCCCC(=O)O)CC[C@]4(C)C3CC[C@@]21C (stereo partly drawn) [Compound 23, 20-Oxo-pregn-5-en-3β-yl hemiadipate O-ethyloxime] | 21 ± 1 (≈ 10.2 µg/mL) |  |  | 100 |  | > 60 | 1.7 ± 0.1 | 7.5 ± 1.1 | 451 ± 79 | Metabolic stability in rat liver microsomes (in vitro [3]; 1 h, 10 µM, pH 7.4): no detectable metabolism after 60 min
CC(=O)[C@H]1CC[C@H]2[C@@H]3CC[C@@H]4C[C@H](OS(=O)(=O)O)CC[C@]4(C)[C@H]3CC[C@]12C [PAS, 20-oxo-5β-pregnan-3α-yl sulfate] |  |  |  |  |  |  |  |  |  | IC50 (NMDA receptors): 24.6 µM

From publication PMC12930396, “Positive modulators of N-methyl-D-aspartate receptor: structure–activity relationship study on steroidal C-17 and C-20 oxime ethers” (RSC Advances, 2026)
